Values quoted from earlier work in patent US20220088024A1, “METHODS FOR TREATING CANCER USING TOZADENANT” (Biotie Therapies, Inc., priority 2018, published 2022).

Test system: mouse tumor models
Settings: cited from earlier work

SMILES | Efficacy in mouse tumor models (alone and in combination with an anti-PD-1 agent (Willingham et al. 2016)) | Activity in a mouse tumor model (monotherapy (Hammerl et al. 2016))
Cc1ccc(-c2nc(N)nc3c2nnn3Cc2cccc(CO[C@H]3CCOC3)n2)o1 [CPI444] | effective | –
Nc1nc2c(cnn2CCc2ccccc2)c2nc(-c3ccco3)nn12 [SCH 58261] | – | demonstrated activity as monotherapy
